A word on the IC50: it is the midpoint of a concentration-inhibition curve.

The test system of test [1] is collagen-degrading enzymes from human skin (basal cell carcinoma conditioned medium). As for the experimental part: (§1) Collagen-degrading enzyme preparations. A collagenolytic enzyme preparation from Clostridium histolyticum (Collagenase type I; Worthington Biochemical Corp, Freehold, N.J.) was used to produce fragmentation of the collagen. […] The bacterial enzyme preparation cleaves intact collagen at numerous sites to produce low molecular weight fragments. Collagenolytic activity was quantified by exposing 1 mg of rat tail (monomeric) collagen to varying concentrations of enzyme preparation for 5 hours at 37° C. Intact collagen exposed to buffer alone served as control. At the end of the incubation period, the control collagen and enzyme-treated collagen were resolved on SDS-PAGE and stained with Coomassie brilliant blue. Laser densitometry was used to quantify α1(I) and α2(I) bands in the intact and digested preparations. […] Human basal cell carcinoma tissue was used as a source of collagen-degrading enzymes from human skin. Fresh tumor specimens obtained at surgery were cut into 2-mm pieces, and 6-8 tissue pieces incubated for 72 hours in 0.5 ml of Ca^2+-supplemented MCDB-153. Incubation was at 37° C. and 5% CO2. At the end of the incubation period, the culture fluid was obtained and used as the enzyme source.

For test [2], the system named is collagenolytic enzyme preparation from Clostridium histolyticum (Collagenase type I). On the procedure: as §1
The test system of the next test is bacterial collagenase. The following applies: gel exposed to bacterial collagenase plus 10 mM EDTA, EDTA then neutralized with Ca2+; FIG. 8B. On the procedure:
as §1

The target in a further test is T1, MMP-2 (Homo sapiens, UniProt P08253).
T1 sequence (P08253 110-660): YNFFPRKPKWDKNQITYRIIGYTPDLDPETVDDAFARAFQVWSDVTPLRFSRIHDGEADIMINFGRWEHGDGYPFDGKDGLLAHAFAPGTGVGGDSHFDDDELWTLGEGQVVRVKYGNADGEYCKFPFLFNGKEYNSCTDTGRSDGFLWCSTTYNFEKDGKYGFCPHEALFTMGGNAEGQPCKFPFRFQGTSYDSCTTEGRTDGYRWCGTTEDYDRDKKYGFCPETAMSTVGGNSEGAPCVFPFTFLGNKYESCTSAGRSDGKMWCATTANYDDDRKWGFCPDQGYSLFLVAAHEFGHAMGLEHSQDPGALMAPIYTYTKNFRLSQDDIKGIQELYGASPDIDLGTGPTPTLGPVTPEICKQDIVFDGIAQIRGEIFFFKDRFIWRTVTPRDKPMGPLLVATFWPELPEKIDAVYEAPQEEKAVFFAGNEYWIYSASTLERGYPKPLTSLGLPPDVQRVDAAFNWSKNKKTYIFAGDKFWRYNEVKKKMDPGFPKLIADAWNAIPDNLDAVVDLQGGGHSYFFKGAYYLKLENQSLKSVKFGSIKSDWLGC
The following applies: from Whittaker et al., Chem. Rev. 1999; cited from earlier work.

For a further test, the target named is MMP-9 (Homo sapiens, UniProt P14780). The following applies: from Whittaker et al., Chem. Rev. 1999; cited from earlier work.
Sequence of MMP-9 (P14780 94-707): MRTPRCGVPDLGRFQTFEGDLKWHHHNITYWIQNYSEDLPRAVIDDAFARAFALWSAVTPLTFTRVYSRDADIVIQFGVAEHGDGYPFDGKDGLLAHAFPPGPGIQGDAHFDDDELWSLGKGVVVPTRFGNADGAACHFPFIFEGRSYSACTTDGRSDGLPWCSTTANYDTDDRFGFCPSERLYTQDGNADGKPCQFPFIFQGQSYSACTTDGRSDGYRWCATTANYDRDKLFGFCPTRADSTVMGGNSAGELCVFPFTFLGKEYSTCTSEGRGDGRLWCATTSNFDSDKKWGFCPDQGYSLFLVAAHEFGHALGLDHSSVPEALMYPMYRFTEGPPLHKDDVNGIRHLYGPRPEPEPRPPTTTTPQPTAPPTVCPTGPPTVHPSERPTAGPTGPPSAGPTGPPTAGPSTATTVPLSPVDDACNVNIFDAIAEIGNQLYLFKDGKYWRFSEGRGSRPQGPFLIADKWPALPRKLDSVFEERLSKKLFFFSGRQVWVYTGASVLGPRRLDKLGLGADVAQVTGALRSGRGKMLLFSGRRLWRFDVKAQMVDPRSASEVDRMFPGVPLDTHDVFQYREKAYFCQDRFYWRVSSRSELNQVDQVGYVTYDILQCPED
A further test relates to human skin collagenase. Put plainly: Fibroblast contraction of collagen gels treated with human skin collagenase. The following applies: gels treated with human skin collagenase in the presence of 10 μg of aprotinin; FIG. 8B. Format: cell-based. On the procedure: Preparation of polymerized collagen gels. […] During this period, the collagen formed a polymerized gel.
Collagen-degrading enzyme preparations. […] Intact collagen exposed to buffer alone served as control. […] Incubation was at 37° C. and 5% CO2.

For `O=C(O)CN(CCN(CC(=O)O)CC(=O)O)CC(=O)O` [EDTA, ethylene diamine tetraacetic acid], in test [1] (10 mM EDTA in the incubation buffer, gelatin, collagen and β-casein), the zymographic activities entry is listed as “suppressed zymographic activities”. For the same compound, the collagen-degradation entry in test [1] (10 mM EDTA in the reaction mixture) is “suppressed collagen-degradation”. Also, in test [2] (10 mM EDTA included in the overnight incubation buffer, gelatin and monomeric collagen), the reactivity in zymography result was “Reactivity was lost”. Further, in test [2] (10 mM EDTA included in the reaction mixture, 1 mg rat tail monomeric collagen, 5 hours at 37° C.), the collagen breakdown entry is “no detectable collagen breakdown”. The collagen contraction entry in the test with bacterial collagenase is on record as “no collagen contraction”.

With `CN1C(=O)N(C[C@H](C(=O)NO)[C@@H](CC2CCCC2)C(=O)N2CCCCC2)C(=O)C1(C)C` [compound 52], the IC50 is 154 nM on MMP-2 and 59 nM on MMP-9.

On to aprotinin, for which the collagen contraction entry in the test with human skin collagenase is given as “not”.

These data come from patent US20020119107A1, “Method for protecting and restoring skin using selective MMP inhibitors” (priority 2000, published 2002).
